# pIC50: −log10 of the molar value. Read-outs that look alike come from different tables or passages of the source.
# Key:
# Mino cells = experiment: Tumor cell proliferation inhibition, CCK-8 kit, 96 h; type: cell-based; settings: Homo sapiens
# Description: (§1) The tumor cells used herein were cultured in RPMI 1640 medium supplemented with 10% FBS, penicillin to a final concentration of 100 U/mL, and streptomycin to a final concentration of 100 μg/mL, at 37° C. in an incubator with 5% CO2. Prior to experimentation, all cells used were correctly identified by STR profiling, and tested negative for Mycoplasma through routine screenings.
# (§2) After 24 h, 100 μL of the inoculated cells were treated with 0.5 μL of the compounds of the present disclosure (including the compounds in Table 1, and Examples compounds) in DMSO at 10 different successively decreasing concentrations (starting at a maximum concentration of 10 μM; 5-fold serial dilutions). […] The growth inhibition of the compounds of the present disclosure on the cells was plotted using Prism Graphpad software, and the IC50 values of the compounds of the present disclosure were calculated.
# MM.1S cells = experiment: as above; type: cell-based; settings: Homo sapiens, MM1.S
# Description: as §1, §2
# Daudi cells = experiment: as above; type: cell-based; settings: Homo sapiens
# Description: as §1, §2
# [1] = target: human Cereblon WT GST-tagged protein (Homo sapiens (Human), UniProt Q96SW2); experiment: CRBN binding, HTRF (CEREBLON BINDING kit)
# Sequence of human Cereblon WT GST-tagged protein (Q96SW2 whole entry): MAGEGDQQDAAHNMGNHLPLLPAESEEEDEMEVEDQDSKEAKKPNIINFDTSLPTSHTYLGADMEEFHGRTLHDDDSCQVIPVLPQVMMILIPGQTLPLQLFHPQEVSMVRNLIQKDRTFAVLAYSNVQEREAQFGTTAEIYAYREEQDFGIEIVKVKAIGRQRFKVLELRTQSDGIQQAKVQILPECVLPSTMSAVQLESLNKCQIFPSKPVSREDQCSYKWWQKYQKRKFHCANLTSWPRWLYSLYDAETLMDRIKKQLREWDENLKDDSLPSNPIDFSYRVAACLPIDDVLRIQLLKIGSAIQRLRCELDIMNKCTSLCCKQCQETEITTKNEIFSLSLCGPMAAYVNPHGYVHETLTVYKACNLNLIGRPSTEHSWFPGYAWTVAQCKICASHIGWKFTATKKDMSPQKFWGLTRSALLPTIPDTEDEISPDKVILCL
# Description: The CEREBLON BINDING kits (specification: 10,000 tests; product number: Catalog #64BDCRBNPEH; CISBIO company) was used to determine the CRBN binding ability of the compounds to be tested through a HTRF method (homogeneous time-resolved fluorescence). The specific methods are as follows: • 1. […] Then, 2.5 μL of human Cereblon WT GST-tagged protein solution was added to each well. Finally, 5 μL of the thoroughly mixed Thalidomide-Re reagent and GST Eu antibody working solution were added to each of the aforementioned wells. […] The blank control wells were sequentially added with 2.5 μL of diluent #9 (1×) solution, 2.5 μL of PROTAC binding buffer, and 5 μL of thoroughly mixed Thalidomide-Re reagent and GST Eu antibody working solution. • 4.
# The corresponding CRBN binding inhibition rate was calculated using the following method: […]
# OD 620 nmcompound is the absorbance value of each well of the compounds of the present disclosure to be tested at an emission wavelength of 620 nm. […] OD 620 nmcontrol is the absorbance value of the blank control well at an emission wavelength of 620 nm. […] OD 620 nmStd0 is the absorbance value of the solvent control well at an emission wavelength of 620 nm.
# TMD8 cells = experiment: Tumor cell proliferation inhibition, CCK-8 kit, 96 h; type: cell-based; settings: Homo sapiens, read-out: IC50 for inhibiting the proliferation of tumor cells, TMD8 cell
# Description: as §1, §2
# GSPT1 protein = GSPT1 protein (Homo sapiens (Human), UniProt P15170+Q96SW2); settings: hPBMC, 24 h, 50 nM
# Sequence of GSPT1 protein (P15170 whole entry, looked up): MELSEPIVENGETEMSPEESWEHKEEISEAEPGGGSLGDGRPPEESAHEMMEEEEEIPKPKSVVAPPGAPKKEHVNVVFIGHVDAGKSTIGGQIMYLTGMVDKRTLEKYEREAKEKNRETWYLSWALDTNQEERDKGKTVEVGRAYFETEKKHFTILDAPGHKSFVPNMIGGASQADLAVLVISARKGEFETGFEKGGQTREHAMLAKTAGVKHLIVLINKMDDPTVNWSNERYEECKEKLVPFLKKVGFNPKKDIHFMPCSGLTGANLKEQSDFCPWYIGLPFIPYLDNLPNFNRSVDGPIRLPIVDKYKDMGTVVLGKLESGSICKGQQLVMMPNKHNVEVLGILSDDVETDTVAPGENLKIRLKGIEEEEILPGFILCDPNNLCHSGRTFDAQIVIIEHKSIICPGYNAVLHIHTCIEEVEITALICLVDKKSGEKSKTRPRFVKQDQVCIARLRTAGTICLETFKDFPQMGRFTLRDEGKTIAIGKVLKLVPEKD
# Sequence of GSPT1 protein (Q96SW2 whole entry, looked up): as the sequence (Q96SW2 whole entry) above
# Sequence of GSPT1 protein (Q16531 whole entry partner, looked up): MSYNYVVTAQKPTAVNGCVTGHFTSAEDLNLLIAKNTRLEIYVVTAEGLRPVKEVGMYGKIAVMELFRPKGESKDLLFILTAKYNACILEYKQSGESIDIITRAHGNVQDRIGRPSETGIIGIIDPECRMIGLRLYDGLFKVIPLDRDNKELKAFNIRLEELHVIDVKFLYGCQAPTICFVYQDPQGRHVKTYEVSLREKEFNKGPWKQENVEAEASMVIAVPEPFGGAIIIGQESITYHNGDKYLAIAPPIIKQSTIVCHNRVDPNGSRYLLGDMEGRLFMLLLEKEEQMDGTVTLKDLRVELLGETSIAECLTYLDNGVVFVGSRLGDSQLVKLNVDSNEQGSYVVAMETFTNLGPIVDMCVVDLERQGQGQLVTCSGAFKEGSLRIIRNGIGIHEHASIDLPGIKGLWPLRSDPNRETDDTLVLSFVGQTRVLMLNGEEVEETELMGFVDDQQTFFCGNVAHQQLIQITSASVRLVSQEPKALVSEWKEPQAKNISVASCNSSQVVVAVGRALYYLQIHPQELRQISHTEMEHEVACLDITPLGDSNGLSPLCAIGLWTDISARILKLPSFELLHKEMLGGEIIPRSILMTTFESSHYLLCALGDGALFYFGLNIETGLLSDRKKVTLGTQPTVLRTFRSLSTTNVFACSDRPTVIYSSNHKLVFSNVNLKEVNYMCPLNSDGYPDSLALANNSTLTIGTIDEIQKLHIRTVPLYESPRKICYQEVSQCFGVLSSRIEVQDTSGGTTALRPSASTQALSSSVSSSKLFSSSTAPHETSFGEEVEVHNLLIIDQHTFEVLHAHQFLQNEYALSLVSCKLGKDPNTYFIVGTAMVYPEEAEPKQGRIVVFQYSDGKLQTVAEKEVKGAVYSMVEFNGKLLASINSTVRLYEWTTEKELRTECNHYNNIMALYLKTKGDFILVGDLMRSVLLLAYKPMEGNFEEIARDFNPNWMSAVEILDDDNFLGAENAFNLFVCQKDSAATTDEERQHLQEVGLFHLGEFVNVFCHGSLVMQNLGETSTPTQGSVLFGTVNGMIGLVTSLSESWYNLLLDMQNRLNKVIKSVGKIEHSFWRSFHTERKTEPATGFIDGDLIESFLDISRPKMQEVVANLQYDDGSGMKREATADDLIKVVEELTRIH
# Text: (§3) The supernatant, containing the total cellular protein, was aspirated.
# IKZF3 protein = IKZF3 protein (Homo sapiens (Human), UniProt Q96SW2+Q9UKT9); experiment: Western blot, substrate protein degradation in hPBMC; type: cell-based; settings: 24 h
# Sequence of IKZF3 protein (Q9UKT9 whole entry): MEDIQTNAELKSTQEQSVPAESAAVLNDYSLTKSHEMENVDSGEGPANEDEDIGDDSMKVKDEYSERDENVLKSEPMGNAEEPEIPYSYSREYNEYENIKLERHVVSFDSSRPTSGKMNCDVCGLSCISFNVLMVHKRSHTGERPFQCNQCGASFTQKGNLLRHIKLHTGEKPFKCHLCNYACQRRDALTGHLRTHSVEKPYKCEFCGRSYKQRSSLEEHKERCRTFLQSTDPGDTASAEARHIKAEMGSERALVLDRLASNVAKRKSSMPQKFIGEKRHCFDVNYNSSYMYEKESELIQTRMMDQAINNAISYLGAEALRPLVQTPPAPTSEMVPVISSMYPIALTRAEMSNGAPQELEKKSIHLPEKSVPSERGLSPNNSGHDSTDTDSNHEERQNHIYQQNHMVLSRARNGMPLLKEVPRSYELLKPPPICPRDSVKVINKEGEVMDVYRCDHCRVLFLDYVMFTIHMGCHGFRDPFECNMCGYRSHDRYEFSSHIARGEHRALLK
# Sequence of IKZF3 protein (Q96SW2 whole entry): as the sequence (Q96SW2 whole entry) above
# Sequence of IKZF3 protein (Q16531 whole entry partner): as the sequence (Q16531 whole entry partner, looked up) above
# Text: as §3
# IKZF1 protein = IKZF1 protein (Homo sapiens (Human), UniProt Q13422+Q96SW2); experiment: as above; type: cell-based; settings: 24 h
# Sequence of IKZF1 protein (Q13422 whole entry): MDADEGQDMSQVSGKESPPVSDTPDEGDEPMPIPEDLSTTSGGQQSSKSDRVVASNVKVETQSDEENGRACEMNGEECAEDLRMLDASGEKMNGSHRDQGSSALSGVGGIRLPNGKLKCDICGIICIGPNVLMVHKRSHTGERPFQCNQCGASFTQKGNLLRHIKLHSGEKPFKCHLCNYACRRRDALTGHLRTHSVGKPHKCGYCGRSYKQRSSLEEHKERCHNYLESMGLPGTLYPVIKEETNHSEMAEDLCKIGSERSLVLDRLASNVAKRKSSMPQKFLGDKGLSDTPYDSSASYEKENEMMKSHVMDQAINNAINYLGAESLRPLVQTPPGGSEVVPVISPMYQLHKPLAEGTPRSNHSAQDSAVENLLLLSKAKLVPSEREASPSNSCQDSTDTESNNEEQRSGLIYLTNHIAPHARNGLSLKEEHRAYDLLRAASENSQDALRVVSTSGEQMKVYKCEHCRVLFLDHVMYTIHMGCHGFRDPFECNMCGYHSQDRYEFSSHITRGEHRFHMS
# Sequence of IKZF1 protein (Q96SW2 whole entry): as the sequence (Q96SW2 whole entry) above
# Sequence of IKZF1 protein (Q16531 whole entry partner): as the sequence (Q16531 whole entry partner, looked up) above
# Text: as §3
# [2] = Mino cells, CCK-8, read-out: IC50 for inhibiting the proliferation of tumor cells, Mino cell
# [3] = MM.1S cells, CCK-8, read-out: IC50 for inhibiting the proliferation of tumor cells, MM.1S cell
# [4] = Daudi cells, CCK-8, read-out: IC50 for inhibiting the proliferation of tumor cells, Daudi cell
Structure (SMILES),pIC50 (Mino cells; [2]),pIC50 (MM.1S cells; [3]),pIC50 [1],further results
"O=C1CCC(N2Cc3c(SCc4ccc(CN5CCC(F)(F)CC5)c(F)c4)cc(F)cc3C2=O)C(=O)N1 (stereo not drawn) [GT-05444, 3-(4-((4-((4,4-difluoropiperidin-1-yl)methyl)-3-fluorobenzyl)thio)-6-fluoro-1-oxoisoindolin-2-yl)piperidine-2,6-dione]",> 8.30,> 8.30,> 6.22,pIC50 (Daudi cells; [4]): 7.30 to 8.00
"O=C1CCC(N2Cc3c(SCCCCCCCCN4CCOCC4)cc(F)cc3C2=O)C(=O)N1 (stereo not drawn) [GT-05341, 3-(6-fluoro-4-((8-morpholinooctyl)thio)-1-oxoisoindolin-2-yl)piperidine-2,6-dione]",–,–,> 6.22,–
"O=C1CCC(N2Cc3c(SCCCCCCC(=O)N4CCC(F)(F)CC4)cc(F)cc3C2=O)C(=O)N1 (stereo not drawn) [GT-05407, 3-(4-((7-(4,4-difluoropiperidin-1-yl)-7-oxoheptyl)thio)-6-fluoro-1-oxoisoindolin-2-yl)piperidine-2,6-dione]",7.30 to 8.00,7.00 to 7.30,> 6.22,–
"Nc1cccc2c1C(=O)N(C1CCC(=O)NC1=O)C2=O (stereo not drawn) [pomalidomide, reference compound]",–,–,–,"pIC50 (Mino cells; MINO, read-out: IC50 for inhibiting the proliferation of tumor cells, Mino cell): 6.30 to 7.00; pIC50 (MM.1S cells; read-out: IC50 for inhibiting the proliferation of tumor cells, MM.1S cell): 6.30 to 7.00; pIC50 (Daudi cells; Daudi, read-out: IC50 for inhibiting the proliferation of tumor cells, Daudi cell): 5.30 to 6.00; pIC50 (TMD8 cells; TMD8, 96 h): 6.30 to 7.00; degradation of GSPT1 protein (GSPT1 protein): does not degrade; degradation of IKZF3 protein (IKZF3 protein; 50 nM): does not degrade; degradation of IKZF1 protein (IKZF1 protein; 50 nM): does not degrade"
"O=C1CCC(N2Cc3c(SCCCCCCCN4CCCCC4)cc(F)cc3C2=O)C(=O)N1 (stereo not drawn) [GT-05344, 3-(6-fluoro-1-oxo-4-((7-(piperidin-1-yl)heptyl)thio)isoindolin-2-yl)piperidine-2,6-dione]",–,–,> 6.22,–
"CCN(CC)CCCCCCCCSc1cc(F)cc2c1CN(C1CCC(=O)NC1=O)C2=O (stereo not drawn) [GT-05342, 3-(4-((8-(diethylamino)octyl)thio)-6-fluoro-1-oxoisoindolin-2-yl)piperidine-2,6-dione]",–,–,> 6.22,–
"O=C1CCC(N2Cc3c(SCc4ccc(CN5CCCCC5)c(F)c4)cc(F)cc3C2=O)C(=O)N1 (stereo not drawn) [GT-05443, 3-(6-fluoro-4-((3-fluoro-4-(piperidin-1-ylmethyl)benzyl)thio)-1-oxoisoindolin-2-yl)piperidine-2,6-dione]",> 8.30,7.30 to 8.00,> 6.22,pIC50 (Daudi cells; [4]): 6.30 to 7.00; concentration at which IKZF3 protein is significantly degraded (IKZF3 protein; Western blot): below 10 nM; concentration at which IKZF1 protein is significantly degraded (IKZF1 protein; Western blot): below 0.1 nM
"O=C1CCC(N2Cc3c(SCCCCCCC(=O)N4CCCCC4)cc(F)cc3C2=O)C(=O)N1 (stereo not drawn) [GT-05343, 3-(6-fluoro-1-oxo-4-((7-oxo-7-(piperidin-1-yl)heptyl)thio)isoindolin-2-yl)piperidine-2,6-dione]",7.30 to 8.00,–,> 6.22,–
"O=C1CCC(N2Cc3c(SCc4ccc(CN5CCCCC5)cc4)cc(F)cc3C2=O)C(=O)N1 (stereo not drawn) [GT-04117, 3-(6-fluoro-1-oxo-4-((4-(piperidin-1-ylmethyl)benzyl)thio)isoindolin-2-yl)piperidine-2,6-dione]",> 8.30,–,> 6.22,"pIC50 (Daudi cells; [4]): 6.00 to 6.30; pIC50 (TMD8 cells; TMD8 cells, 96 h, CCK-8): 7.30 to 8.00"
"O=C1CCC(N2Cc3c(SCc4ccc(CN5CCC(F)(F)CC5)cc4)cc(F)cc3C2=O)C(=O)N1 (stereo not drawn) [GT-04024, 3-(4-((4-((4,4-difluoropiperidin-1-yl)methyl)benzyl)thio)-6-fluoro-1-oxoisoindolin-2-yl)piperidine-2,6-dione]",–,–,> 6.22,"pIC50 (TMD8 cells; TMD8 cells, 96 h, CCK-8): 8.00 to 8.30"
"O=C1CCC(N2Cc3c(SCCCCCCCN4CCC(F)(F)CC4)cc(F)cc3C2=O)C(=O)N1 (stereo not drawn) [GT-05408, 3-(4-((7-(4,4-difluoropiperidin-1-yl)heptyl)thio)-6-fluoro-1-oxoisoindolin-2-yl)piperidine-2,6-dione]",7.00 to 7.30,–,> 6.22,–
"CC1(C)[C@@H]2CC[C@@]1(C)[C@@H](NCc1ccc(CSc3cc(F)cc4c3CN(C3CCC(=O)NC3=O)C4=O)cc1)C2 (stereo partly drawn) [GT-05424, 3-(6-fluoro-1-oxo-4-((4-((((1R,2S,4R)-1,7,7-trimethylbicyclo[2.2.1]heptan-2-yl)amino)methyl)benzyl)thio)isoindolin-2-yl)piperidine-2,6-dione]",> 8.30,7.30 to 8.00,> 6.22,pIC50 (Daudi cells; [4]): 6.30 to 7.00

# Now from value to compound, other results behind:
pIC50 (Mino cells; [2]),pIC50 (MM.1S cells; [3]),pIC50 [1],Structure (SMILES),further results
–,–,> 6.22,"O=C1CCC(N2Cc3c(SCCCCCCCNC45CC6CC(CC(C6)C4)C5)cc(F)cc3C2=O)C(=O)N1 (stereo not drawn) [GT-04333, 3-(4-((7-((adamantan-1-yl)amino)heptyl)thio)-6-fluoro-1-oxoisoindolin-2-yl)piperidine-2,6-dione]",–
> 8.30,> 8.30,> 6.22,"CN(CCCCCCCSc1cc(F)cc2c1CN(C1CCC(=O)NC1=O)C2=O)C12CC3CC(CC(C3)C1)C2 (stereo not drawn) [GT-05421, 3-(4-((7-((adamantan-1-yl)(methyl)amino)heptyl)thio)-6-fluoro-1-oxoisoindolin-2-yl)piperidine-2,6-dione]",–
> 8.30,7.00 to 7.30,> 6.22,"CC1(C)[C@@H]2CC[C@@]1(C)[C@@H](NCCCCCCCSc1cc(F)cc3c1CN(C1CCC(=O)NC1=O)C3=O)C2 (stereo partly drawn) [GT-05425, 3-(6-fluoro-1-oxo-4-((7-(((1R,2S,4R)-1,7,7-trimethylbicyclo[2.2.1]heptan-2-yl)amino)heptyl)thio)isoindolin-2-yl)piperidine-2,6-dione]",pIC50 (Daudi cells; [4]): 6.00 to 6.30
> 8.30,> 8.30,> 6.22,"O=C1CCC(N2Cc3c(SCc4ccc(CNC56CC7CC(CC(C7)C5)C6)cc4)cc(F)cc3C2=O)C(=O)N1 (stereo not drawn) [GT-05423, 3-(4-((4-(((adamantan-1-yl)amino)methyl)benzyl)thio)-6-fluoro-1-oxoisoindolin-2-yl)piperidine-2,6-dione]",–
7.00 to 7.30,–,> 6.22,"O=C1CCC(N2Cc3c(CCCCCCCCNC45CC6CC(CC(C6)C4)C5)cc(F)cc3C2=O)C(=O)N1 (stereo not drawn) [GT-05617, 3-(4-(8-((adamantan-1-yl)amino)octyl)-6-fluoro-1-oxoisoindolin-2-yl)piperidine-2,6-dione]",–
> 8.30,> 8.30,> 6.22,"O=C1CCC(N2Cc3c(SCc4ccc(CCNC56CC7CC(CC(C7)C5)C6)cc4)cc(F)cc3C2=O)C(=O)N1 (stereo not drawn) [GT-05431, 3-(4-((4-(2-((adamantan-1-yl)amino)ethyl)benzyl)thio)-6-fluoro-1-oxoisoindolin-2-yl)piperidine-2,6-dione]",pIC50 (Daudi cells; [4]): > 8.30
> 8.30,> 8.30,> 6.22,"O=C1CCC(N2Cc3c(SCCCCCCCNC4CC5(CCC5)C4)cc(F)cc3C2=O)C(=O)N1 (stereo not drawn) [GT-05422, 3-(6-fluoro-1-oxo-4-((7-(spiro[3.3]heptan-2-ylamino)heptyl)thio)isoindolin-2-yl)piperidine-2,6-dione]",–
> 8.30,–,> 6.22,"O=C1CCC(N2Cc3c(SCCCCCCCNC4CCCCC4)cc(F)cc3C2=O)C(=O)N1 (stereo not drawn) [GT-05409, 3-(4-((7-(cyclohexylamino)heptyl)thio)-6-fluoro-1-oxoisoindolin-2-yl)piperidine-2,6-dione]",–
–,–,> 6.22,"O=C1CCC(N2Cc3c(SCCCCNC45CC6CC(CC(C6)C4)C5)cc(F)cc3C2=O)C(=O)N1 (stereo not drawn) [GT-04243, 3-(4-((4-((adamantan-1-yl)amino)butyl)thio)-6-fluoro-1-oxoisoindolin-2-yl)piperidine-2,6-dione]",–
